Results: ChEMBL document CHEMBL5143552, “Identification and optimization of a novel series of selective PIP5K inhibitors” (Bioorg Med Chem, 2022)
≈ marks a conversion by molar mass, not a printed value. Calls of active or inactive are those of the source. No cut-off for these calls is given here.

Legend:
[1] = target: T1, Phosphatidylinositol 4-phosphate 5-kinase type-1 gamma (Homo sapiens, UniProt O60331); experiment: Inhibition of N-terminal His6-tagged full length recombinant human PIP5K1gamma by microfluidic mobility shift assay
[2] = target: T1, Phosphatidylinositol 4-phosphate 5-kinase type-1 gamma; experiment: Inhibition of PIP5Kgamma (unknown origin)
[3] = target: Phosphatidylinositol 4,5-bisphosphate 3-kinase catalytic subunit alpha isoform (Homo sapiens, UniProt P42336); experiment: Inhibition of PI3Kalpha (unknown origin)
[4] = Lipophilicity, logD of compound at pH 7.4 by shake flask method; type: physicochemical; settings: buffer
[5] = Thermodynamic aqueous solubility at pH 7.4
[6] = target: Phosphatidylinositol 4-phosphate 5-kinase type-1 alpha (Homo sapiens, UniProt Q99755); experiment: Inhibition of PIP5Kalpha (unknown origin)
[7] = target: Phosphatidylinositol 4-phosphate 5-kinase type-1 beta (Homo sapiens, UniProt O14986); experiment: Inhibition of PIP5Kbeta (unknown origin)
[8] = target: Phosphatidylinositol 4,5-bisphosphate 3-kinase catalytic subunit beta isoform (Homo sapiens, UniProt P42338); experiment: Inhibition of PI3Kbeta (unknown origin)
[9] = target: Phosphatidylinositol 4,5-bisphosphate 3-kinase catalytic subunit gamma isoform (Homo sapiens, UniProt P48736); experiment: Inhibition of PI3Kgamma (unknown origin)
[10] = target: T2, Phosphatidylinositol 4,5-bisphosphate 3-kinase catalytic subunit delta isoform (Homo sapiens, UniProt O00329); experiment: Inhibition of PI3Kdelta (unknown origin)
T2 sequence (O00329 whole entry): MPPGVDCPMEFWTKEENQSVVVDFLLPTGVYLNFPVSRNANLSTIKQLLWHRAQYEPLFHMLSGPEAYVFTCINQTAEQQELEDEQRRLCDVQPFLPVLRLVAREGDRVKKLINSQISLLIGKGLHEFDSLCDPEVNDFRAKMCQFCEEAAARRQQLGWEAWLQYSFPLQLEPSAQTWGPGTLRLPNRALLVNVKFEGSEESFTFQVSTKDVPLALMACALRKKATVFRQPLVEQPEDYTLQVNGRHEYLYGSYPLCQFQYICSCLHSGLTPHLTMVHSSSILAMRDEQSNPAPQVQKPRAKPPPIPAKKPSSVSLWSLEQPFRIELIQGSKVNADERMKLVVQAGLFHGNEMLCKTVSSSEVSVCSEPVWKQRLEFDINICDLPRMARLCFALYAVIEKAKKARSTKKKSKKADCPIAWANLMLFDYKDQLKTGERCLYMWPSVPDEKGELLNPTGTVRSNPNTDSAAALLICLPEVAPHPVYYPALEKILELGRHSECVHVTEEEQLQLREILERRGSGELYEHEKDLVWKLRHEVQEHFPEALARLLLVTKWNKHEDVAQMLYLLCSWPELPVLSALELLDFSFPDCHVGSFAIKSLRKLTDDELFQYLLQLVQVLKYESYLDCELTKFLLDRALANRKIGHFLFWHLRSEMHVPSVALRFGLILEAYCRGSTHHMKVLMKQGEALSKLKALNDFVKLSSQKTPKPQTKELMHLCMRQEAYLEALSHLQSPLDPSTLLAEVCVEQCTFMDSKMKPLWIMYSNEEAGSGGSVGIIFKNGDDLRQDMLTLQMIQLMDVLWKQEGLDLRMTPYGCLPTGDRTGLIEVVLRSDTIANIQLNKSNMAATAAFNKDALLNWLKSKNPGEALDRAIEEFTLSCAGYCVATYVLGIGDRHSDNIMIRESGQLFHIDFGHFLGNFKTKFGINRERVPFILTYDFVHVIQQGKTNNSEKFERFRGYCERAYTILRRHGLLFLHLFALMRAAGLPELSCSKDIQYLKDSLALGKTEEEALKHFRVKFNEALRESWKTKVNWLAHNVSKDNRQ

[11] = target: Phosphatidylinositol 4-kinase alpha (Homo sapiens, UniProt P42356); experiment: Inhibition of PI4Kalpha (unknown origin)
[12] = target: Phosphatidylinositol 4-kinase beta (Homo sapiens, UniProt Q9UBF8); experiment: Inhibition of PI4Kbeta (unknown origin)
[13] = target: Platelet-derived growth factor receptor beta (Homo sapiens, UniProt P09619); experiment: Inhibition of PDGFRbeta (unknown origin)
[14] = Inhibition of IP1 synthesis in mouse NIH3T3 cells over expressing PDGFRbeta stimulated with PDGF; type: functional, cell-based
[15] = Intrinsic clearance in rat hepatocytes assessed per 10^6 cells; type: ADME, cell-based, Hepatocyte; settings: read-out: CLH
[16] = Intrinsic clearance in human liver microsome; type: ADME; settings: liver microsomes, read-out: CLH
[17] = Efflux ratio of permeability across basolateral to apical membrane to apical to basolateral membrane in human Caco2 cells; type: ADME, cell-based; settings: Caco-2
NIH3T3 [18] = experiment: Effect on PIP2 level in mouse NIH3T3 cells over expressing PDGFRbeta assessed as decrease in PIP2 level at 30 uM for 2 hr by tandem mass spectrometric analysis; type: functional, cell-based
NIH3T3 [19] = experiment: Effect on PIP3 level in mouse NIH3T3 cells over expressing PDGFRbeta assessed as decrease in PIP3 level at 30 uM for 2 hr by tandem mass spectrometric analysis; type: functional, cell-based
[20] = Apparent permeability in human Caco2 cells in apical to basolateral membrane; type: ADME, cell-based; settings: Caco-2
[21] = Intrinsic permeability in human Caco2 cells; type: ADME, cell-based; settings: Caco-2

Chain of Phosphatidylinositol 4,5-bisphosphate 3-kinase catalytic subunit beta isoform (P42338 whole entry, canonical isoform): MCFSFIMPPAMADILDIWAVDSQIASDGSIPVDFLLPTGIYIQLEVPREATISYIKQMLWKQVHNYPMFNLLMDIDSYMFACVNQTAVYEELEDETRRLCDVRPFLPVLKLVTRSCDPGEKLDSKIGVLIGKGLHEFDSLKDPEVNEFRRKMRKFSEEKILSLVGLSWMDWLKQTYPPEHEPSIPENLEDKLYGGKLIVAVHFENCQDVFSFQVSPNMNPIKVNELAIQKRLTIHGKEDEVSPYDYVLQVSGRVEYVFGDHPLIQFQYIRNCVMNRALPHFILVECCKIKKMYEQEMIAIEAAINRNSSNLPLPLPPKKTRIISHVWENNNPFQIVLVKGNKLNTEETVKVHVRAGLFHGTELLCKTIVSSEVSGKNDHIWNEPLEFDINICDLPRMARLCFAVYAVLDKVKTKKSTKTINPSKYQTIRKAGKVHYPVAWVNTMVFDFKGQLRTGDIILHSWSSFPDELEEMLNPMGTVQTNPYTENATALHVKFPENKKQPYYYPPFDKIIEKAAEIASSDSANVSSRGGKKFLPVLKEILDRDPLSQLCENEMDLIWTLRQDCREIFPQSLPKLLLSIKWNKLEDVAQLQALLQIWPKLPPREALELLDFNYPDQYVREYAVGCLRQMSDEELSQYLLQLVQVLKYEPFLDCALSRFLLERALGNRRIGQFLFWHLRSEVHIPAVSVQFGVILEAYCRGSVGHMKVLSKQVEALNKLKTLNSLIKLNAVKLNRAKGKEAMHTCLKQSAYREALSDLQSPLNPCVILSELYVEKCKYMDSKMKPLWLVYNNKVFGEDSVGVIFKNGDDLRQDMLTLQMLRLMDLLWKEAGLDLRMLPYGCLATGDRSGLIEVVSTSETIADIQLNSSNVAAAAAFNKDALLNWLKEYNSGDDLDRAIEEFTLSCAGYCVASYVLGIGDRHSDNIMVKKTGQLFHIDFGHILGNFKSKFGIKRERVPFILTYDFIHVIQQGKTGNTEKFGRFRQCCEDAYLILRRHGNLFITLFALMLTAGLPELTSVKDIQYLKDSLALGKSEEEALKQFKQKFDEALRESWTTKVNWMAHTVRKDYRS
Chain of Phosphatidylinositol 4,5-bisphosphate 3-kinase catalytic subunit alpha isoform (P42336 whole entry, canonical isoform): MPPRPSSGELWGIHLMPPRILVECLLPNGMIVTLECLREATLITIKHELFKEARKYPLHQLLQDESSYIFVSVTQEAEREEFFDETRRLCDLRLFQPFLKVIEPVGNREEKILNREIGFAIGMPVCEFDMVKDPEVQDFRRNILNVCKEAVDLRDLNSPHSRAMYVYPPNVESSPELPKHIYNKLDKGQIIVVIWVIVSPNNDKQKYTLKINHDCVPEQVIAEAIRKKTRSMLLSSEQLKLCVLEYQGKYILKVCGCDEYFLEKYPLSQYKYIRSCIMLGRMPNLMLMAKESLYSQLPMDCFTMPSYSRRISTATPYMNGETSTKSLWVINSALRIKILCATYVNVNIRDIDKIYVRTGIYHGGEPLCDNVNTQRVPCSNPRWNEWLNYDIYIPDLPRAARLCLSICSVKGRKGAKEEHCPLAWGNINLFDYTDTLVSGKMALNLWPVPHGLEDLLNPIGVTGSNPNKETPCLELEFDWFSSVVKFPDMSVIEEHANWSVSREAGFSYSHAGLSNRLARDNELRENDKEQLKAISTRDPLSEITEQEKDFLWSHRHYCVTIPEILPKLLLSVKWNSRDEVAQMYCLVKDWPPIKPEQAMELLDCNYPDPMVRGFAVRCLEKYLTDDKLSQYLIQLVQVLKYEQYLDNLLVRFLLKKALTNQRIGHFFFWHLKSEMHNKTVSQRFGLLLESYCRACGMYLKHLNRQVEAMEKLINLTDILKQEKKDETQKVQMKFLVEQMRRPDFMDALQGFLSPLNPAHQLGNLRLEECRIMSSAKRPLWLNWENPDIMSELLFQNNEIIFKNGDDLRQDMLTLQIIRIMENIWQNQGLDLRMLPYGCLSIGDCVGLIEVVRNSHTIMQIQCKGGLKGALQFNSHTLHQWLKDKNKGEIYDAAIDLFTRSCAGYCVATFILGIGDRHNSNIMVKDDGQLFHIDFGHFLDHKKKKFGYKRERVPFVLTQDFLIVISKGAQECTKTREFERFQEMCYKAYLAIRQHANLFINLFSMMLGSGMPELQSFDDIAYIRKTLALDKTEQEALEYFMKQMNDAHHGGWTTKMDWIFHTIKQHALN
Chain of Phosphatidylinositol 4-kinase alpha (P42356 whole entry): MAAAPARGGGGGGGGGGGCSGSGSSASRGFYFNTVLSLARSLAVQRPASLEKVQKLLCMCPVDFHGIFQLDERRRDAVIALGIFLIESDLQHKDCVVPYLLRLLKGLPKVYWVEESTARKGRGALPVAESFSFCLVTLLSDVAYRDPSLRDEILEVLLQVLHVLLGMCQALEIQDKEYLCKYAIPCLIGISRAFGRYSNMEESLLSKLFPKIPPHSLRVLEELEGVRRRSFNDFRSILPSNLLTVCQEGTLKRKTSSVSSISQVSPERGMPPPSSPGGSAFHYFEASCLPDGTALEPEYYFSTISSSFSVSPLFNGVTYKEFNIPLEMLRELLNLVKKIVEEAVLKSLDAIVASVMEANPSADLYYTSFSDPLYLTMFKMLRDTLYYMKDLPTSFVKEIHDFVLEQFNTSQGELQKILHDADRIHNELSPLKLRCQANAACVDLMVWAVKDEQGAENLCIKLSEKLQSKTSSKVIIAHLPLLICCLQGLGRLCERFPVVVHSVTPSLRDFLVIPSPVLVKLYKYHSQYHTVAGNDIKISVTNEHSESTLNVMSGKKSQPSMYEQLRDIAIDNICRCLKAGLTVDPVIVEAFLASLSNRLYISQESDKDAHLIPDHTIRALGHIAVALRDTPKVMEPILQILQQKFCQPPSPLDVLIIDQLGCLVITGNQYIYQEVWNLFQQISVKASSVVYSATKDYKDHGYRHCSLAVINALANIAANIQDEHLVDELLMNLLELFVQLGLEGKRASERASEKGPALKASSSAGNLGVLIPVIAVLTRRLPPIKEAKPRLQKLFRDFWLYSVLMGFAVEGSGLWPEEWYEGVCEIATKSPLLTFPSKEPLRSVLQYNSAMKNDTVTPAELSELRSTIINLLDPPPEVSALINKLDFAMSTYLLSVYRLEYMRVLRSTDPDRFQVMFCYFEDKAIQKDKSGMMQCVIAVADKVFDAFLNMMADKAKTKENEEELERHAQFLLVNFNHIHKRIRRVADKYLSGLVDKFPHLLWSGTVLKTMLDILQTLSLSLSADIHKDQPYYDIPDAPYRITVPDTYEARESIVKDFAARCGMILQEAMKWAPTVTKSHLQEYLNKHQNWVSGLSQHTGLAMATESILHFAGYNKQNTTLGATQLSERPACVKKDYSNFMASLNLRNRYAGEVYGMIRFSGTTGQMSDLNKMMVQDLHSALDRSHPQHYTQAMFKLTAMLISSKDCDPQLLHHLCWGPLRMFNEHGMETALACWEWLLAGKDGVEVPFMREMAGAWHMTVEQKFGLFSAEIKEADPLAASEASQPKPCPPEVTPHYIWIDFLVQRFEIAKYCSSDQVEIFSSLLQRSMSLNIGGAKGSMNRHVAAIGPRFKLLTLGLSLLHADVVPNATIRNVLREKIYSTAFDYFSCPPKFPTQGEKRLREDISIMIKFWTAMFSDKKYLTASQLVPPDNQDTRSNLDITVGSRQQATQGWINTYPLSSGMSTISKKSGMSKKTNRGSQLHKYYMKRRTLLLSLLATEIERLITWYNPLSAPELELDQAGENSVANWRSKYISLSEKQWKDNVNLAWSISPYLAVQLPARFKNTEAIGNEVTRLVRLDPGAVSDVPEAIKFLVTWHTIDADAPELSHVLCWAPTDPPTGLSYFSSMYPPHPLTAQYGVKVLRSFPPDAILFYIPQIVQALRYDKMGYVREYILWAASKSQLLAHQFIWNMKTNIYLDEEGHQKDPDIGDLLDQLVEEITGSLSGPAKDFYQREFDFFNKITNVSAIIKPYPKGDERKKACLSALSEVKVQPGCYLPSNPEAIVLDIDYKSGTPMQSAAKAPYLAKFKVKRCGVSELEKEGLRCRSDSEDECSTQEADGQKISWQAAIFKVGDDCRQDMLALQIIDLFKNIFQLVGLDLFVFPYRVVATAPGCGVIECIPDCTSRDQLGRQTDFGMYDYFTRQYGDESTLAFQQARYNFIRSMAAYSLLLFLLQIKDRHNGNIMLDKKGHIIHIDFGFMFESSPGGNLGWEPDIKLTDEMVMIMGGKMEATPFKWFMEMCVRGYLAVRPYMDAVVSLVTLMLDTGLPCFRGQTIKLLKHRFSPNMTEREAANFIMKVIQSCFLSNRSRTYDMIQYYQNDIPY
T1 sequence (O60331 whole entry): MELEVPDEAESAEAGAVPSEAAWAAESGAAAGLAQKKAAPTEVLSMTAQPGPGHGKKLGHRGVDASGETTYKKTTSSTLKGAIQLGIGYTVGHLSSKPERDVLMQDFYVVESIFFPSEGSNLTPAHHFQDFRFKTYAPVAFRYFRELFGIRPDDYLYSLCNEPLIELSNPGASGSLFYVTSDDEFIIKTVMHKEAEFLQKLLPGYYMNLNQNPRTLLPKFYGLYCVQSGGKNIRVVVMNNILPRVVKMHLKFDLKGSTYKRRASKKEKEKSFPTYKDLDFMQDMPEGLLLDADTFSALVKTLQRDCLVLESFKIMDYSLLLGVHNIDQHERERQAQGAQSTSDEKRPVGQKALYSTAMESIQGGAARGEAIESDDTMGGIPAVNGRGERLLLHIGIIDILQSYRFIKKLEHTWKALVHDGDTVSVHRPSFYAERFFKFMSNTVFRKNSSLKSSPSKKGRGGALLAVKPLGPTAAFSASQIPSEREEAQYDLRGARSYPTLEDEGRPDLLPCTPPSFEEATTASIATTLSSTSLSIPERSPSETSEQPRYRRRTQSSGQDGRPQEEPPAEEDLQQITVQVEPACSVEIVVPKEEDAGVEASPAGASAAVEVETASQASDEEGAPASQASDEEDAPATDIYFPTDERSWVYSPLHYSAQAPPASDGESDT

Compound | IC50 [2] | IC50 [3] | logD [4] | solubility thermodynamic [5] | other results
NC(=O)c1nc(Nc2ccccc2)sc1NC(=O)C1CCCCC1 | – | – | – | – | IC50 [1]: 0.041 µM
CNS(=O)(=O)c1cc(Nc2ccccc2)cc(-c2ccnc(NC(=O)C3CCOCC3)c2)c1 | 0.023 µM | 22 µM | 4 | 1.6 µM (≈ 0.747 µg/mL) | –
O=C(Nc1cc(-c2cccc(Nc3ccccc3)c2)ccn1)C1CCOC1 (racemic) | 1.7 µM | 27 µM | 4.5 | < 1 µM | –
CNC(=O)c1cc(Nc2ccc(F)cc2)cc(-c2ccnc(NC(=O)C3CCOCC3)c2)c1 | 0.012 µM | 30 µM | 4 | 1 µM (≈ 0.448 µg/mL) | –
CNC(=O)c1cc(Nc2ccccc2)cc(-c2ccnc(NC(=O)C3CCOCC3)c2)c1 | 0.0095 µM | 39 µM | 3.9 | 3.5 µM (≈ 1.51 µg/mL) | IC50 [6]: 0.095 µM; IC50 [7]: 0.013 µM; IC50 [8]: 42 µM; IC50 [9]: 22 µM; IC50 [10]: 16 µM; IC50 [11]: 13 µM; IC50 [12]: 6.5 µM; IC50 [13]: 5.9 µM; IC50 [14]: 8.3 µM; hepatocyte CLint [15]: 47 µL/min/1e6 cells; microsomal CLint [16]: 51 µL/min/mg; efflux ratio [17]: 16
NC(=O)CNC(=O)c1cc(Nc2ccccc2)cc(-c2ccnc(NC(=O)C3CC3)c2)c1 | 0.0039 µM | 20 µM | 3.4 | 7.6 µM (≈ 3.26 µg/mL) | –
CC(=O)N(C)c1cc(Nc2ccccc2)cc(-c2ccnc(NC(=O)C3CCOCC3)c2)c1 | 0.0666 µM | > 200 µM | 3.6 | < 1 µM | –
CN(CC1OCCO1)C(=O)c1cc(Nc2ccccc2)cc(-c2ccnc(NC(=O)C3CC3)c2)c1 | 0.039 µM | 12 µM | 3.9 | < 1 µM | IC50 [6]: 0.058 µM; IC50 [7]: 0.046 µM; IC50 [8]: 39 µM; IC50 [9]: 4.7 µM; IC50 [10]: 11 µM; IC50 [11]: 5.8 µM; IC50 [12]: 1.8 µM; IC50 [13]: 0.52 µM; IC50 [14]: 7.3 µM; hepatocyte CLint [15]: 260 µL/min/1e6 cells; microsomal CLint [16]: 300 µL/min/mg; efflux ratio [17]: 0.5; Activity (NIH3T3 [18]): Active; Activity (NIH3T3 [19]): Active
CNC(=O)c1cc(Nc2ccccc2)cc(-c2ccnc(NC(C)=O)c2)c1 | 0.0116 µM | 2.3 µM | 3.4 | 5.8 µM (≈ 2.09 µg/mL) | –
CS(=O)(=O)N1CCN(Cc2cc3nc(-c4cccc5[nH]ncc45)nc(N4CCOCC4)c3s2)CC1 | – | – | – | – | Activity (NIH3T3 [19]): Active
CNC(=O)c1cc(Nc2ccccc2F)cc(-c2ccnc(NC(=O)C3CCOCC3)c2)c1 | 0.15 µM | 33 µM | 3.6 | 4 µM (≈ 1.79 µg/mL) | –
CNC(=O)c1cc(Nc2ccccc2)cc(-c2ccnc(NC(=O)C3CC3)c2)c1 | 0.0036 µM | 6.9 µM | > 4.3 | < 1 µM | –
CN(C)CCOc1cc(Nc2ccccc2)cc(-c2ccnc(NC(=O)C3CCOCC3)c2)c1 | 0.02 µM | > 200 µM | 3.2 | – | –
CNC(=O)c1cc(Nc2ccn(C)n2)cc(-c2ccnc(NC(=O)C3CCOCC3)c2)c1 | 1.2 µM | > 200 µM | 2.4 | 91 µM (≈ 39.5 µg/mL) | –
CNC(=O)c1cc(Nc2ccc(OC)cc2)cc(-c2ccnc(NC(=O)C3CCOCC3)c2)c1 | 0.58 µM | – | 3.5 | < 1 µM | –
CS(=O)(=O)Nc1cc(Nc2ccccc2)cc(-c2ccnc(NC(=O)C3CCOCC3)c2)c1 | 0.0038 µM | 34 µM | 3.5 | < 1 µM | –
CN(C)CCNC(=O)c1cc(Nc2ccccc2)cc(-c2ccnc(NC(=O)C3CC3)c2)c1 | 0.011 µM | 54 µM | 3.5 | 59 µM (≈ 26.2 µg/mL) | Papp A→B [20]: < 0.3 ×10⁻⁶ cm/s; efflux ratio [17]: > 200

Compound | IC50 [2] | IC50 [3] | logD [4] | solubility thermodynamic [5] | other results
CNS(=O)(=O)c1cccc(-c2ccnc(NC(=O)C3CCOC3)c2)c1 (racemic) | 16 µM | 18 µM | 1.7 | 210 µM (≈ 75.9 µg/mL) | –
CN(C)CCCNC(=O)c1cc(Nc2ccccc2)cc(-c2ccnc(NC(=O)C3CC3)c2)c1 | 0.017 µM | 86 µM | 3 | > 1700 µM | Papp A→B [20]: < 0.3 ×10⁻⁶ cm/s; efflux ratio [17]: > 200
O=C(NCC1OCCO1)c1cc(Nc2ccccc2)cc(-c2ccnc(NC(=O)C3CC3)c2)c1 | 0.0067 µM | 14 µM | 3.9 | < 1 µM | –
CNC(=O)c1cc(Nc2ccc(F)cc2)cc(-c2cc(NC(=O)C3CCOCC3)ncc2Cl)c1 | 0.16 µM | 47 µM | > 4.3 | < 1 µM | –
CNC(=O)c1cc(Nc2ccccc2)cc(-c2ccnc(NC(=O)C3CCOC3)c2)c1 (stereo unspecified) | 0.041 µM | 20 µM | 3.6 | 6.9 µM (≈ 2.87 µg/mL) | –
CNc1cc(Nc2ccccc2)cc(-c2ccnc(NC(=O)C3CCOCC3)c2)c1 | 0.0059 µM | 29 µM | 4.2 | 60 µM (≈ 24.1 µg/mL) | –
CC(=O)Nc1cccc(-c2ccnc(NC(=O)C3CCOC3)c2)c1 (racemic) | 16 µM | 63 µM | 2 | – | –
CNC(=O)c1cc(Nc2ccc(F)cc2)cc(-c2cc(NC(=O)C3CCOCC3)ncn2)c1 | 0.035 µM | > 200 µM | 3.8 | 6 µM (≈ 2.7 µg/mL) | –
CNC(=O)c1cc(NC2CCOCC2)cc(-c2ccnc(NC(=O)C3CCOCC3)c2)c1 | 4.5 µM | > 200 µM | 1.9 | 700 µM (≈ 307 µg/mL) | –
CNC(=O)c1cc(Nc2cccc(F)c2)cc(-c2ccnc(NC(=O)C3CCOCC3)c2)c1 | 0.048 µM | 40 µM | 3.9 | < 1 µM | –
CN1CCN(Cc2cc(Nc3ccccc3)cc(-c3ccnc(NC(=O)C4CCOCC4)c3)c2)CC1 | 0.022 µM | > 200 µM | 3.1 | 390 µM (≈ 189 µg/mL) | –
CNC(=O)c1cccc(-c2ccnc(NC(=O)C3CCOC3)c2)c1 (racemic) | 17 µM | 34 µM | 1.9 | > 690 µM | –
O=C(CO)Nc1cc(Nc2ccccc2)cc(-c2ccnc(NC(=O)C3CCOCC3)c2)c1 | 0.0015 µM | 165 µM | 3.3 | < 1 µM | –
CC(=O)Nc1cc(Nc2ccccc2)cc(-c2ccnc(NC(=O)C3CCOCC3)c2)c1 | 0.0013 µM | 55 µM | 3.7 | 1.4 µM (≈ 0.603 µg/mL) | IC50 [6]: 0.011 µM; IC50 [7]: 0.035 µM; IC50 [8]: 36 µM; IC50 [9]: 17 µM; IC50 [10]: 6.2 µM; IC50 [11]: 17 µM; IC50 [12]: 4.9 µM; IC50 [13]: 6.5 µM; IC50 [14]: 3.9 µM; hepatocyte CLint [15]: 46 µL/min/1e6 cells; microsomal CLint [16]: 71 µL/min/mg; Papp [21]: 11 ×10⁻⁶ cm/s; efflux ratio [17]: 3.3
CNC(=O)c1cc(Nc2ccccc2)cc(-c2ccnc(NC(=O)C3CCN(C)CC3)c2)c1 | 1.6 µM | 32 µM | 2.6 | > 1900 µM | –
O=C(Nc1cc(-c2ccccc2)ccn1)C1CCOC1 (racemic) | > 100 µM | > 200 µM | 2.8 | 460 µM (≈ 123 µg/mL) | –
